The text below walks through data of US10479780B2, “Aminopyrazole derivatives” (Chugai Seiyaku Kabushiki Kaisha, priority 2015, dated 2019).

Common to all, as to format: biochemical
In one test the target is T1, human Src enzyme (Homo sapiens, UniProt P12931).
T1 construct: purchased Carna Biosciences, Inc. 08-173
Nature of the test: Src enzyme inhibitory activity (time-resolved fluorometry, biotinylated peptide phosphorylation). Conditions: read-out: SRC_IC50. The gist of the method:
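Compounds were tested for blocking tyrosine phosphorylation of a biotinylated peptide substrate by recombinant human Src. Phosphorylated product was quantified by time-resolved fluorometry using europium cryptate and XL665 conjugates, and IC50 was calculated against the compound-free control.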

The target of the next test is T2, human Lck enzyme (Homo sapiens, UniProt P06239).
T2 construct: purchased Carna Biosciences, Inc. 08-170
Nature of the test: Lck enzyme inhibitory activity (time-resolved fluorometry, biotinylated peptide phosphorylation). The conditions noted are these: read-out: LCK_IC50. In a few lines:
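Readout pairs a europium cryptate-labelled anti-phosphotyrosine antibody with XL665-streptavidin, measured by time-resolved fluorescence. IC50 derived from percent inhibition against untreated controls.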

The target of another test is T3, human Yes1 enzyme (Homo sapiens, UniProt P07947).
T3 construct: made in house
Nature of the test: Yes1 enzyme inhibitory activity (time-resolved fluorometry, biotinylated peptide phosphorylation). The conditions noted are these: read-out: YES_IC50. In a few lines:
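Inhibition was expressed against a compound-free control to give IC50, using TR-FRET read-out (Eu-cryptate anti-pTyr antibody, streptavidin-XL665).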

[1] abbreviates: biotinylated peptide phosphorylation.

The structures appear in SMILES notation. Like-named read-outs stand apart in the source and are kept apart here.

T2 sequence (P06239 whole entry): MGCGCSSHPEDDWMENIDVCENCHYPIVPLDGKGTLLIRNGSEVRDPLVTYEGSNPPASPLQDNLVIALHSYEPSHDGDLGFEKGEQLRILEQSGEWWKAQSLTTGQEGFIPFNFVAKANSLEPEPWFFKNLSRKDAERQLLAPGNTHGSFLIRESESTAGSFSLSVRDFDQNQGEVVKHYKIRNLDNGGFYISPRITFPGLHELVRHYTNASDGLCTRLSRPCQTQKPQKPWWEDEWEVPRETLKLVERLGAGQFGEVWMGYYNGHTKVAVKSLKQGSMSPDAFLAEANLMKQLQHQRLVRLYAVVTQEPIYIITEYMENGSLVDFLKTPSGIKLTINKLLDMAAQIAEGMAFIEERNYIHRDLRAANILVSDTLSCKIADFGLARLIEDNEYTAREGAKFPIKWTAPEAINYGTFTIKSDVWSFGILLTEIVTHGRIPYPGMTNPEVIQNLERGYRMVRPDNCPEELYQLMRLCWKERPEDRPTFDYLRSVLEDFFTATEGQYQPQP
T1 sequence (P12931 whole entry): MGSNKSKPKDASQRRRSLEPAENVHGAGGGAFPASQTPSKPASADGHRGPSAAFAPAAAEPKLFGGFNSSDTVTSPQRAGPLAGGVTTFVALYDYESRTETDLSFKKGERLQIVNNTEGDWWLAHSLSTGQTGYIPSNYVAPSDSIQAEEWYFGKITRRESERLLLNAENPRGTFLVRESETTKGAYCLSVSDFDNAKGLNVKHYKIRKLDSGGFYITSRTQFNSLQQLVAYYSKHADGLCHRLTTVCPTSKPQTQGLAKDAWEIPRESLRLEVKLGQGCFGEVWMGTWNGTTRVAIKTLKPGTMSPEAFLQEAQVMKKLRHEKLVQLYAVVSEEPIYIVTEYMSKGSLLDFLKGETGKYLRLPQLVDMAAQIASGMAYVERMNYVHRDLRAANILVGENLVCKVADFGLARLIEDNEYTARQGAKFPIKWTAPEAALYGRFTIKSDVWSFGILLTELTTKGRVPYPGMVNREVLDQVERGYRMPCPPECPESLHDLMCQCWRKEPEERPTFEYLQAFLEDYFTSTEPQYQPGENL
T3 sequence (P07947 whole entry): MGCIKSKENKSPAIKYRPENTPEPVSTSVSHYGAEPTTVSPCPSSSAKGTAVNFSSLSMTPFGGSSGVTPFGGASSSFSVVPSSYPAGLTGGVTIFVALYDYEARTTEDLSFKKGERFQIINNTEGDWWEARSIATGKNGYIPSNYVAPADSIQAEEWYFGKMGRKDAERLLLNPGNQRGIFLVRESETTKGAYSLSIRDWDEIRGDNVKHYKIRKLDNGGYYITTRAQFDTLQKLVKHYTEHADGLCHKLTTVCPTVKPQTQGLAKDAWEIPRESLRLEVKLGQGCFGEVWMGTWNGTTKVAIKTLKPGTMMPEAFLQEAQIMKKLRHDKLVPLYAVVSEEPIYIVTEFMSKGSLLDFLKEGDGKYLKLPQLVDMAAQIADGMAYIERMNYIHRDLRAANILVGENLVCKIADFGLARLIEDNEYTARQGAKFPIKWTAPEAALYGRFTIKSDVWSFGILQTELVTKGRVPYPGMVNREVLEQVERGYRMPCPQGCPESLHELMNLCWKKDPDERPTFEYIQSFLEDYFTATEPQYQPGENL

`Cc1cc(Oc2ccccc2F)ccc1-n1ncc(C(=O)c2cc3cc(F)c(N4C(=O)[C@@H]5C[C@@H](O)CN5C4=O)cc3[nH]2)c1N` [Example 5-1-449, (6R,7aS)-2-[2-[5-amino-1-[4-(2-fluorophenoxy)-2-methylphenyl]pyrazole-4-carbonyl]-5-fluoro-1H-indol-6-yl]-6-hydroxy-5,6,7,7a-tetrahydropyrrolo[1,2-c]imidazole-1,3-dione]: the IC50 turned out to be 0.013 µM at human Src enzyme (setting [1]), 0.0033 µM on human Lck enzyme (setting [1]) and 0.00066 µM at human Yes1 enzyme (setting [1]).

For the compound `Cc1cc(Oc2ccccc2F)ccc1-n1ncc(C(=O)c2cc3cc(N4CCOCC4)c(N4CCOC4=O)cc3[nH]2)c1N` [Example 5-1-106, 3-[2-[5-amino-1-[4-(2-fluorophenoxy)-2-methylphenyl]pyrazole-4-carbonyl]-5-morpholin-4-yl-1H-indol-6-yl]-1,3-oxazolidin-2-one], the IC50 at human Src enzyme was 0.002 µM; at human Lck enzyme it was 0.0011 µM; on human Yes1 enzyme it was 0.00042 µM.

In the case of `Cc1cc(Oc2cc(F)cc(F)c2)ncc1-n1ncc(C(=O)c2cc3cc(F)c(NS(C)(=O)=O)cc3[nH]2)c1N` [Example 5-1-038, N-[2-[5-amino-1-[6-(3,5-difluorophenoxy)-4-methylpyridin-3-yl]pyrazole-4-carbonyl]-5-fluoro-1H-indol-6-yl]methanesulfonamide], the IC50 at human Src enzyme was determined as 0.27 µM; on human Lck enzyme, 0.066 µM; at human Yes1 enzyme, 0.016 µM.

Take `Cc1cc2cc(C(=O)c3cnn(-c4c(C)cc(Oc5c(F)cccc5Cl)cc4F)c3N)[nH]c2cc1NS(C)(=O)=O` [Example 5-1-142, N-[2-[5-amino-1-[4-(2-chloro-6-fluorophenoxy)-2-fluoro-6-methylphenyl]pyrazole-4-carbonyl]-5-methyl-1H-indol-6-yl] methanesulfonamide]: the IC50 was found to be 0.099 µM on human Src enzyme, 0.052 µM at human Lck enzyme and 0.0056 µM at human Yes1 enzyme.

As for `Cc1cc(Oc2ccccc2F)ncc1-n1ncc(C(=O)c2cc3cc(OCC(F)F)c(NS(=O)(=O)C4CC4)cc3[nH]2)c1N` [Example 4-24-027, N-[2-[5-amino-1-[6-(2-fluorophenoxy)-4-methylpyridin-3-yl]pyrazole-4-carbonyl]-5-(2,2-difluoroethoxy)-1H-indol-6-yl]cyclopropanesulfonamide], the results for the IC50 on human Src enzyme (setting [1]), at human Lck enzyme (setting [1]) and at human Yes1 enzyme (setting [1]) were 0.14 µM, 0.055 µM and 0.0032 µM, respectively.

`Cc1cc2cc(C(=O)c3cnn(-c4cnc(Oc5ccccc5F)cc4C)c3N)[nH]c2cc1NS(=O)(=O)c1cc(C(F)(F)F)ccn1` [Example 5-1-485, N-[2-[5-amino-1-[6-(2-fluorophenoxy)-4-methylpyridin-3-yl]pyrazole-4-carbonyl]-5-methyl-1H-indol-6-yl]-4-(trifluoromethyl) pyridine-2-sulfonamide]: the IC50 is 0.52 µM on human Src enzyme (setting [1]), 0.11 µM at human Lck enzyme (setting [1]) and 0.0068 µM on human Yes1 enzyme (setting [1]).

Turning to `COc1cc2cc(C(=O)c3cnn(-c4ccc(Oc5ccccc5F)cc4C)c3N)[nH]c2cc1NS(=O)(=O)N1CCOCC1` [Example 4-12-003, N-[2-[5-amino-1-[4-(2-fluorophenoxy)-2-methylphenyl]pyrazole-4-carbonyl]-5-methoxy-1H-indol-6-yl]morpholine-4-sulfonamide], the results for the IC50 on human Src enzyme (setting [1]), on human Lck enzyme (setting [1]) and on human Yes1 enzyme (setting [1]) were 0.045 µM, 0.014 µM and 0.00054 µM, respectively.

In the case of `Cc1cc(Oc2cc(F)ccc2F)ncc1-n1ncc(C(=O)c2cc3cc(F)c(NS(C)(=O)=O)cc3[nH]2)c1N` [Example 4-2-030, N-[2-[5-amino-1-[6-(2,5-difluorophenoxy)-4-methylpyridin-3-yl]pyrazole-4-carbonyl]-5-fluoro-1H-indol-6-yl]methanesulfonamide], the IC50 on human Src enzyme (setting [1]) was 0.11 µM; on human Lck enzyme (setting [1]), 0.026 µM; on human Yes1 enzyme (setting [1]), 0.0017 µM.
